Source: patent US4912102A, “Analogs of naphtho[1,2-β] [1,4] thiazepin-4(5H)-one” (Hoffmann-La Roche Inc., priority 1988, dated 1990)
Counter-ions that a name gives are not always drawn. Like-named read-outs stand apart in the source and are kept apart here.

Experiments:
[1] = tested on: Guinea Pig Ileal Longitudinal Smooth Muscle; test: Inhibition of K+-induced tonic contraction, guinea pig ileum assay (calcium channel blocking activity); type: cell-based; conditions: for IC50: tonic contraction, 80 mM K+ challenge, 37° C., read-out: Inhibition of K^+-Induced Contractile Responses, IC50, Tonic; for activity in the guinea pig ileum test: doses up to 10^-4 M
Experimental: Male guinea-pigs weighing from 300-400 grams were stunned and bled. The abdomen was opened and 10-15 cm of terminal ileum was carefully removed and cleaned and placed in Tyrode's Solution of the following composition: NaCl (8 g/l), KCl (0.2 g/l), MgCl2 (0.1 g/l), CaCl2 (0.2 g/l). NaH2 PO4 (0.05 g/l), NaHCO3 (1.0 g/l) and Glucose (1 g/l). The solution was maintained at 37° C. and gassed with 95% O2 and 5% CO2. Portions of the ileum were placed over a glass rod, a shallow incision was made the length of the mesenteric attachment just severing the outer-longitudinal muscle layer. The longitudinal muscle was separated from the underlying circular muscle by gentle dissection (Rang. H. P. Annals. of New York Academy of Science, vol. 144, page 756, 1964). The tissue was fixed at one end to a tissue holder, the other end was connected by a thread to a force transducer and suspended in a muscle bath containing Tyrode's Solution maintained at 37° C. and gassed with 95% O2 and 5% CO2. An initial tension of 500 mg was applied and the tissue allowed to equilibrate for 60 minutes prior to the start of the study. During this period the tissue was washed every 16 minutes. Each preparation, at 16 minute intervals, was challenged with KCl sufficient to yield a bath K+ concentration of 80 mMK for 2 minutes, then washed with fresh solution. The 16 minute interval between K+ challenges was maintained throughout the study. Upon stabilization of the responses to the K+ challenge the test compound (potential calcium entry antagonist) was introduced into the bath 2 minutes prior to and during the 2 minute exposure to K+ after which the bath was cleared and washed with fresh solution. Logarithmically increasing doses (up to 10^-4 M) of the potential antagonist were administered as the study progressed. The measure of a compound's ability to inhibit the tonic contraction of muscle is a measure of its activity as a calcium channel blocking agent.

[2] = tested on: lipid peroxidation in liposomes prepared from native rat cardiac lipid; test: Anti-peroxidative activity (superoxide-dependent, iron-promoted lipid peroxidation, MDA-like products); type: biochemical; conditions: for Anti-Peroxidative Activity % Inhibition (1 μM) / IC50: 60 minutes at 37° C.
Experimental: An in vitro assay system to measure antiperoxidative activity is done in two steps: (A) lipid peroxidation is triggered by a free-radical generating system that replicates the superoxide-dependent, iron-promoted Haber-Weiss reaction, and (B) peroxidation is measured spectrophotometrically as the production of malondialdehyde-like products (MDA). Liposomes prepared from the native rat cardiac lipid are incubated with hypoxanthine, xanthine oxidase, and Fe· ADP chelate, and a test substance or buffer in glass tubes for 60 minutes at 37° C. The amount of peroxidation is determined by adding a thiobarbituric acid-reaction mixture to the tubes, heating to 80° C. for 30 minutes and reading the pink adduct at 530 nm.

| SMILES | IC50 ([1]; Cavia porcellus) | IC50 [2] | activity in the anti-peroxidative test [2] | activity in the guinea pig ileum test [1] | other results |
| --- | --- | --- | --- | --- | --- |
| COc1ccc([C@@H]2Sc3c(ccc4ccccc34)N(CCN(C)C)C(=O)[C@@H]2OC(=O)c2ccccc2O)cc1 (racemic) [Compound F, (±)-cis-2,3-dihydro-3-[(2-hydroxybenzoyl)oxy]-5-[2-(dimethylamino)ethyl]-2-(4-methoxyphenyl)naphtho[1,2-b][1,4]thiazepin-4(5H)-one hydrochloride] | 45 µM |  |  |  |  |
| COc1ccc([C@@H]2Sc3c(ccc4ccccc34)N(CCN(C)C)C(=O)[C@@H]2OC(=O)c2cc(C(C)(C)C)c(O)c(C(C)(C)C)c2)cc1 (racemic) [Example 14, (±)-cis-2,3-Dihydro-3-[[4-hydroxy-3,5-bis(1,1-dimethylethyl)benzoyl]oxy]-2-(4-methoxyphenyl)-5-[2-(dimethylamino)ethyl]naphtho[1,2-b][1,4]thiazepin-4(5H)-one] |  |  | active | not found to be active |  |
| CNCCN1C(=O)[C@H](O)[C@H](c2ccc(OC)cc2)Sc2c1ccc1ccccc21 (relative stereo) [Compound C] |  |  |  |  | IC50 [1]: 7 µM |
| CNCCN1C(=O)[C@H](OC(C)=O)[C@H](c2ccc(OC)cc2)Sc2c1ccc1ccccc21 (relative stereo) [Compound D] |  |  |  |  | IC50 [1]: 3.5 µM |
| COc1ccc([C@@H]2Sc3c(ccc4ccccc34)N(CCN(C)C)C(=O)[C@@H]2OC(=O)c2ccccc2OC(C)=O)cc1 (relative stereo) [Compound E, (±)-cis-3-[[(2-acetyloxy)benzoyl]oxy]-2,3-dihydro-5-[2-(dimethylamino)ethyl]-2-(4-methoxyphenyl)naphtho[1,2-b][1,4]thiazepin-4(5H)-one hydrochloride] | 13 µM |  |  |  |  |
| COc1ccc([C@@H]2Sc3c(ccc4ccccc34)N(CCN(C)C)C(=O)[C@@H]2OC(=O)c2ccc(OC)c(OC)c2)cc1 (relative stereo) [Example 4, (±)-cis-3-[(3,4-Dimethoxybenzoyl)oxy]-2,3-dihydro-5-[2-(dimethylamino)ethyl]-2-(4-methoxyphenyl)naphtho][1,2-b][1,4]thiazepin-4(5H)-one] |  |  | active | not found to be active |  |
| COc1ccc([C@@H]2Sc3c(ccc4ccccc34)N(CCN(C)C)C(=O)[C@@H]2OC(=O)C2(C)CCc3c(C)c(O)c(C)c(C)c3O2)cc1 (relative stereo) [Example 18, [(+)-cis-3(2alpha and 2beta)1-2,3-Dihydro-3-[[(3,4-dihydro-6-hydroxy-2,5,7,8-tetramethyl-2H-1-benzopyran-2-yl)carbonyl]oxy]-2-(4-methoxyphenyl)-5-[2-(dimethylamino)ethyl]naphtho[1,2-b][1,4]thiazepin-4(5H)-one] |  |  | active | not found to be active |  |

Further lines, with some results ahead:

| IC50 ([1]; Cavia porcellus) | IC50 [2] | SMILES | activity in the anti-peroxidative test [2] | activity in the guinea pig ileum test [1] | other results |
| --- | --- | --- | --- | --- | --- |
| 70 µM |  | COc1ccc([C@@H]2Sc3c(ccc4ccccc34)N(CCN(C)C)C(=O)[C@@H]2OC(=O)c2cc(OC)c(OC)c(OC)c2)cc1 (racemic) [Compound J, (±)-cis-2,3-dihydro-2-(4-methoxyphenyl)-3-[(3,4,5-trimethoxybenzoyl)oxy]-5-[2-(dimethylamino)ethyl]naphtho [1,2-b][1,4]thiazepin-4(5H)-one hydrochloride] |  |  |  |
| 16 µM |  | COc1ccc([C@@H]2Sc3c(ccc4ccccc34)N(CCN(C)C)C(=O)[C@@H]2OC(=O)c2cccnc2)cc1 (relative stereo) [Compound M, (±)-cis-2,3-dihydro-2-(4-methoxyphenyl)-5-[2-(dimethylamino)ethyl]-3-[(3-pyridinylcarbonyl)oxy]naphtho[1,2-b][1,4]thiazepin-4(5H)-one dihydrochloride (4:5) hydrate] |  |  |  |
|  | < 1 µM | COc1ccc([C@@H]2Sc3c(ccc4ccccc34)N(CCN(C)C)C(=O)[C@@H]2OC(=O)C2(C)CCc3c(cc(C(C)C)c(O)c3C(C)C)O2)cc1 (relative stereo) [Example 15 isomer "A", [(±)-cis-3(2alpha or 2beta)]-2,3-dihydro-3-[[[3,4-dihydro-6-hydroxy-2-methyl-5,7-bis(1-methylethyl)-2H-1-benzopyran-2-yl]carbonyl]oxy]-5-[2-(dimethylamino)ethyl]-2-(4-methoxyphenyl)naphtho[1,2-b][1,4]thiazepin-4(5H)-one] | found to be active |  | Anti-Peroxidative Activity % Inhibition (1 μM) ([2]; listed as drawing 26, 1 µM): 62.6% |
|  | < 1 µM | COc1ccc([C@@H]2Sc3c(ccc4ccccc34)N(CCN(C)C)C(=O)[C@@H]2OC(=O)C2(C)CCc3c(cc(C(C)C)c(O)c3C(C)C)O2)cc1 (relative stereo) [Example 15 isomer "B", [(±)-cis-3(2alpha or 2beta)]-2,3-dihydro-3-[[[3,4-dihydro-6-hydroxy-2-methyl-5,7-bis(1-methylethyl)-2H-1-benzopyran-2-yl]carbonyl]oxy]-5-[2-(dimethylamino)ethyl]-2-(4-methoxyphenyl)naphtho[1,2-b][1,4]thiazepin-4(5H)-one] |  |  | Anti-Peroxidative Activity % Inhibition (1 μM) ([2]; listed as drawing 27, 1 µM): 66.7% |
|  | < 1 µM | COc1ccc([C@@H]2Sc3c(ccc4ccccc34)N(CCN(C)C)C(=O)[C@@H]2OC(=O)C2(C)CCc3c(cc(C(C)C)c(O)c3C(C)C)O2)cc1 (single isomer, unassigned; (+)) [Example 17 isomer "A", [(+)-Cis-3(2α or 2β)]-2,3-dihydro-3-[[[3,4-dihydro-6-hydroxy-2-methyl-5,7-bis(1-methylethyl)-2H-1-benzopyran-2-yl]carbonyl]oxy]-5-[2-(dimethylamino)ethyl]-2-(4-methoxyphenyl)naphtho[1,2-b][1,4]thiazepin-4(5H)-one (E)-2-butenedioate monohydrate] | found to be active | not found to be active | Anti-Peroxidative Activity % Inhibition (1 μM) ([2]; monohydrate): 58.5% |
|  | < 1 µM | COc1ccc([C@@H]2Sc3c(ccc4ccccc34)N(CCN(C)C)C(=O)[C@@H]2OC(=O)C2(C)CCc3c(cc(C(C)C)c(O)c3C(C)C)O2)cc1 (single isomer, unassigned; (+)) [Example 17 isomer "B", [(+)-cis-3(2alpha, or 2beta)]-2,3-dihydro-3-[[[3,4-dihydro-6-hydroxy-2-methyl-5,7-bis(1-methylethyl)-2H-1-benzopyran-2-yl]carbonyl]oxy]-5-[2-(dimethylamino)ethyl]-2-(4-methoxyphenyl)naphtho[1,2-b][1,4]thiazepin-4(5H)-one] |  | not found to be active | Anti-Peroxidative Activity % Inhibition (1 μM) [2]: 59.6% |
